Counter-ions that a name gives are not always drawn. Like-named read-outs stand apart in the source and are kept apart here.
How the values were obtained:
[1] = molecular target: T1, eqBuChE (BuChE from equine serum) (Equus caballus, UniProt P81908); assay: biochemical; type: biochemical; settings: for BuChE selectivity: IC50(AChE)/IC50(BuChE); for IC50: [S] = 112 µM, mean ± SD
T1 construct: eqBuChE (BuChE from equine serum); from tissue; host or cells: equine serum
Description: (§1) The inhibitory activity of 12a–12d against AChE and BuChE was carried out following minor modifications of the Ellman assay,[30] as reported previously[31] using Thermo Scientific^TM Varioskan^TM LUX microplate reader and Greiner F-bottom 96-well plates.

[2] = molecular target: T2, eeAChE (AChE from Electrophorus electricus) (Electrophorus electricus, UniProt O42275); settings: [S] = 121 µM; cited from earlier work
AChE = settings: mixed inhibition of AChE; cited from earlier work
BuChE = molecular target: BuChE; parameters: method as in PMID 33228403; settings: mixed inhibition of BuChE; cited from earlier work
[3] = molecular target: T2, eeAChE (AChE from Electrophorus electricus); assay: biochemical; settings: [S] = 121 µM; mean ± SD
Description: as §1

T2 sequence (O42275 24-633): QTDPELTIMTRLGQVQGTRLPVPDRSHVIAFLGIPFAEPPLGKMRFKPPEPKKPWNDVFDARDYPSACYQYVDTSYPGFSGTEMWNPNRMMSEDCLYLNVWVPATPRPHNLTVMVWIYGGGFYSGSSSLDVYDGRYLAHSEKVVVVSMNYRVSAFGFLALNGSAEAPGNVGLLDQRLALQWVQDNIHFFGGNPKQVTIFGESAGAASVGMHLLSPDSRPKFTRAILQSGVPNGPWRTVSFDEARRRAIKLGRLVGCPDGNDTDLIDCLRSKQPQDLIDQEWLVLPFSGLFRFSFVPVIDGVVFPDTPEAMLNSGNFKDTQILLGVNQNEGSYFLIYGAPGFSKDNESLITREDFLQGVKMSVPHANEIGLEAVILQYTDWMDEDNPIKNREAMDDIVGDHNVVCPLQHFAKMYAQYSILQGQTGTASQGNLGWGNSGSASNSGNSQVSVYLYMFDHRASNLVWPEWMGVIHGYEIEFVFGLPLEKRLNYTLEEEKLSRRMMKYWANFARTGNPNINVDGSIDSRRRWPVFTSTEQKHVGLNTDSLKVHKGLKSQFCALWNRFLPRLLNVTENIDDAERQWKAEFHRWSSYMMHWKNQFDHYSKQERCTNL
T1 sequence (P81908 whole entry): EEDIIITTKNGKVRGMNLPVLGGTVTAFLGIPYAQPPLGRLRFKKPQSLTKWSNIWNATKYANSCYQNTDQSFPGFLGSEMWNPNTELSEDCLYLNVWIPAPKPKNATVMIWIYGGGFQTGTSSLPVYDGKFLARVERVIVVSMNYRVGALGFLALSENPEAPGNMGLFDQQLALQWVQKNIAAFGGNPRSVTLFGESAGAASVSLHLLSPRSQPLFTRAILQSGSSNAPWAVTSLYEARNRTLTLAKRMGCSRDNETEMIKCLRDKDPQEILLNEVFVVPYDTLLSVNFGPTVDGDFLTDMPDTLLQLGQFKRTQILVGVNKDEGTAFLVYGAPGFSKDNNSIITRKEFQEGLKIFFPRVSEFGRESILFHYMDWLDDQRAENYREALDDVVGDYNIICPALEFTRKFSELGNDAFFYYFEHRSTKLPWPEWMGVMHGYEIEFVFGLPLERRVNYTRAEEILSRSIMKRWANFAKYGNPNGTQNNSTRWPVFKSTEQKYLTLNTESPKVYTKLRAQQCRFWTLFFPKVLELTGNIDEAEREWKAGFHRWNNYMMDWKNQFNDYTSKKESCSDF

Structure (SMILES)	BuChE selectivity [1]	IC50 [1] [µM]	IC50 [3] [µM]	further results
OC[C@H]1NC[C@H](O)[C@@H](O)[C@@H]1O [Compound 4, 1-deoxynojirimycin, reference compound]	>10			IC50 [2]: > 100 µM
OC[C@@H]1[C@@H](O)[C@H](O)[C@@H](O)CN1CCCCCNC(=[Se])Nc1ccc(Br)cc1 [Compound 8]				Ki (AChE): 5.8 µM
OC[C@@H]1[C@@H](O)[C@H](O)[C@@H](O)CN1Cc1cn(CCCCCCNc2c3c(nc4ccccc24)CCCC3)nn1 [Compound 9]				Ki (AChE): 0.0071 µM; αKi (AChE): 17.4 nM
COc1ccc(CCOCCCCCCN2C[C@H](O)[C@@H](O)[C@H](O)[C@H]2CO)cc1OC [Compound 10]				Ki (BuChE): 1.4 µM; αKi (BuChE): 4.5 µM
OC[C@@H]1[C@@H](O)[C@H](O)[C@@H](O)CN1CCCn1cc(Cn2nnc3ccccc32)nn1 [Compound 12a]	>10	50 ± 3	> 500	
OC[C@@H]1[C@@H](O)[C@H](O)[C@@H](O)CN1CCCCCCn1cc(Cn2nnc3ccccc32)nn1 [Compound 12b]	9.7	6.7 ± 0.7	65 ± 2	fold more potent BuChE inhibitor than 1-DNJ [1]: 1.5 fold; uncompetitive inhibition constant αKi ([1]; BuChE, Cornish-Bowden plots): 12 ± 1 µM; type of inhibition ([1]; BuChE, Cornish-Bowden plots (1/V vs. [I] and [S]/V vs. [I])): mixed inhibitor; Ki ([1]; BuChE, Cornish-Bowden plots, read-out: competitive inhibition constant Ki): 4.9 ± 0.4 µM
OC[C@@H]1[C@@H](O)[C@H](O)[C@@H](O)CN1CCCCCCCCn1cc(Cn2nnc3ccccc32)nn1 [Compound 12c, N-(1-(2-((1H-benzo[1,2,3]triazol-1-yl)methyl)-1H-1,2,3-triazol-1-yl)octyl)-1-deoxynojirimycin hydrochloride]	>19	26 ± 0.7	> 500	
OC[C@@H]1[C@@H](O)[C@H](O)[C@@H](O)CN1CCCCCCCCCCn1cc(Cn2nnc3ccccc32)nn1 [Compound 12d, N-(1-(2-((1H-benzo[1,2,3]triazol-1-yl)methyl)-1H-1,2,3-triazol-1-yl)decyl)-1-deoxynojirimycin hydrochloride]		17 ± 0.7	> 500	

From PMC9467581 (Journal of Enzyme Inhibition and Medicinal Chemistry, 2022)
